Source: the CheMixHub viscosity set

Test: xn = mol fraction of the nth substance listed

Cc1ncc(C[n+]2csc(CCO)c2C)c(N)n1.Cl.[Cl-] + O
Conditions | viscosity [mPa·s]
293.15 K, 101 kPa, x1 = 0.00036 | 1.014
293.15 K, 101 kPa, x1 = 0.00072 | 1.027
293.15 K, 101 kPa, x1 = 0.00108 | 1.041
293.15 K, 101 kPa, x1 = 0.00144 | 1.057
293.15 K, 101.3 kPa, x1 = 0.000445 | 1.015
293.15 K, 101.3 kPa, x1 = 0.000886 | 1.029
293.15 K, 101.3 kPa, x1 = 0.00177 | 1.063
293.15 K, 101.3 kPa, x1 = 0.002215 | 1.08
298.15 K, 101 kPa, x1 = 0.00036 | 0.9013
298.15 K, 101 kPa, x1 = 0.000364 | 0.9024
298.15 K, 101 kPa, x1 = 0.000385 | 0.914
298.15 K, 101 kPa, x1 = 0.000657 | 0.914
298.15 K, 101 kPa, x1 = 0.00072 | 0.9129
298.15 K, 101 kPa, x1 = 0.000731 | 0.929
298.15 K, 101 kPa, x1 = 0.000952 | 0.9244
298.15 K, 101 kPa, x1 = 0.00107 | 0.941
298.15 K, 101 kPa, x1 = 0.00108 | 0.9266
298.15 K, 101 kPa, x1 = 0.00125 | 0.9372
298.15 K, 101 kPa, x1 = 0.00144 | 0.9406
298.15 K, 101 kPa, x1 = 0.00145 | 0.96
298.15 K, 101 kPa, x1 = 0.00155 | 0.9488
298.15 K, 101 kPa, x1 = 0.001658 | 0.9532
298.15 K, 101 kPa, x1 = 0.001695 | 0.9545
298.15 K, 101 kPa, x1 = 0.001856 | 0.959
298.15 K, 101 kPa, x1 = 0.001922 | 0.98
298.15 K, 101 kPa, x1 = 0.002519 | 0.9786
298.15 K, 101 kPa, x1 = 0.002881 | 1.013
298.15 K, 101 kPa, x1 = 0.003713 | 1.05
298.15 K, 101 kPa, x1 = 0.003828 | 1.034
298.15 K, 101 kPa, x1 = 0.004291 | 1.055
298.15 K, 101 kPa, x1 = 0.004534 | 1.083
298.15 K, 101 kPa, x1 = 0.005245 | 1.097
298.15 K, 101 kPa, x1 = 0.005408 | 1.111
298.15 K, 101 kPa, x1 = 0.007149 | 1.185
298.15 K, 101 kPa, x1 = 0.00796 | 1.228
298.15 K, 101 kPa, x1 = 0.009056 | 1.254
298.15 K, 101 kPa, x1 = 0.009864 | 1.281
298.15 K, 101.3 kPa, x1 = 0.000445 | 0.902
298.15 K, 101.3 kPa, x1 = 0.000886 | 0.916
298.15 K, 101.3 kPa, x1 = 0.00133 | 0.931
298.15 K, 101.3 kPa, x1 = 0.00177 | 0.947
298.15 K, 101.3 kPa, x1 = 0.002215 | 0.963
303.15 K, 101 kPa, x1 = 0.00036 | 0.8078
303.15 K, 101 kPa, x1 = 0.00072 | 0.8185
303.15 K, 101 kPa, x1 = 0.00108 | 0.8322
303.15 K, 101 kPa, x1 = 0.00144 | 0.8443
303.15 K, 101.3 kPa, x1 = 0.000445 | 0.808
303.15 K, 101.3 kPa, x1 = 0.000886 | 0.822
303.15 K, 101.3 kPa, x1 = 0.00133 | 0.836
303.15 K, 101.3 kPa, x1 = 0.00177 | 0.85
303.15 K, 101.3 kPa, x1 = 0.002215 | 0.864
308.15 K, 101 kPa, x1 = 0.00036 | 0.729
308.15 K, 101 kPa, x1 = 0.000364 | 0.7301
308.15 K, 101 kPa, x1 = 0.000657 | 0.7393
308.15 K, 101 kPa, x1 = 0.00072 | 0.7391
308.15 K, 101 kPa, x1 = 0.000952 | 0.7485
308.15 K, 101 kPa, x1 = 0.00108 | 0.7506
308.15 K, 101 kPa, x1 = 0.00125 | 0.7576
308.15 K, 101 kPa, x1 = 0.00144 | 0.7631
308.15 K, 101 kPa, x1 = 0.00155 | 0.768
308.15 K, 101 kPa, x1 = 0.001658 | 0.7726
308.15 K, 101 kPa, x1 = 0.001695 | 0.7711
308.15 K, 101 kPa, x1 = 0.001856 | 0.7772
308.15 K, 101 kPa, x1 = 0.002519 | 0.8005
308.15 K, 101 kPa, x1 = 0.003828 | 0.837
308.15 K, 101 kPa, x1 = 0.004291 | 0.8515
308.15 K, 101 kPa, x1 = 0.005245 | 0.8799
308.15 K, 101.3 kPa, x1 = 0.000445 | 0.73
308.15 K, 101.3 kPa, x1 = 0.000886 | 0.743
308.15 K, 101.3 kPa, x1 = 0.00177 | 0.77
308.15 K, 101.3 kPa, x1 = 0.002215 | 0.783
313.15 K, 101 kPa, x1 = 0.00036 | 0.6623
313.15 K, 101 kPa, x1 = 0.00072 | 0.6722
313.15 K, 101 kPa, x1 = 0.00108 | 0.6831
313.15 K, 101 kPa, x1 = 0.00144 | 0.6947
313.15 K, 101.3 kPa, x1 = 0.000445 | 0.664
313.15 K, 101.3 kPa, x1 = 0.000886 | 0.676
313.15 K, 101.3 kPa, x1 = 0.00133 | 0.689
313.15 K, 101.3 kPa, x1 = 0.00177 | 0.702
313.15 K, 101.3 kPa, x1 = 0.002215 | 0.713
318.15 K, 101 kPa, x1 = 0.000364 | 0.6037
318.15 K, 101 kPa, x1 = 0.000657 | 0.6116
318.15 K, 101 kPa, x1 = 0.000952 | 0.6196
318.15 K, 101 kPa, x1 = 0.00125 | 0.6275
318.15 K, 101 kPa, x1 = 0.00155 | 0.6343
318.15 K, 101 kPa, x1 = 0.001658 | 0.6377
318.15 K, 101 kPa, x1 = 0.001695 | 0.6389
318.15 K, 101 kPa, x1 = 0.001856 | 0.6413
318.15 K, 101 kPa, x1 = 0.002519 | 0.6591
318.15 K, 101 kPa, x1 = 0.003828 | 0.6919
318.15 K, 101 kPa, x1 = 0.005245 | 0.7256
318.15 K, 101.3 kPa, x1 = 0.000445 | 0.606
318.15 K, 101.3 kPa, x1 = 0.000886 | 0.618
318.15 K, 101.3 kPa, x1 = 0.00133 | 0.63
318.15 K, 101.3 kPa, x1 = 0.00177 | 0.642
318.15 K, 101.3 kPa, x1 = 0.002215 | 0.653
